What was measured:
[1] = biological target: GPR142 (Mus musculus (Mouse), UniProt Q7TQN9); assay: Intraperitoneal Glucose Tolerance Tests (IPGTT); assay type: in vivo; details: male C57BL/6 mice; for ED50 / ED80: oral dosing 30 minutes prior to i.p. glucose challenge (2 g/kg), glucose AUC lowering; for considered positive in the assay (reduction in glucose AUC, P<0.05): oral dosing, IPGTT
Method: Intraperitoneal Glucose Tolerance Tests (IPGTT)
IPGTT assay is used to examine the ability of exemplified compounds to activate GPR142 in vivo resulting in anti-diabetic efficacy, i.e. reduction in plasma glucose levels. Male C57BL/6 mice (8-10 weeks of age) are fed normal rodent chow diet and water ad libitum. On the night before the study, animals are fasted overnight in clean cages. On the morning of the study, animals are dosed orally with vehicle or compound at the indicated doses 30 minutes prior to the glucose challenge (2 g/kg) by intraperitoneal injection. Blood glucose levels are determined from tail bleeds taken immediately prior to compound dosing (−30 min) and 0, 15, 30, and 60 min after glucose challenge using handheld glucometers. Plasma is isolated from tail bleeds taken at 7 min after glucose challenge and used to determine insulin levels by the Rat/Mouse Insulin Elisa kit (Millipore) or MA6000 Mouse/Rat Insulin Kit (MSD). The blood glucose profile from t=0 to t=60 min is used to calculate an area under the curve (AUC) for each treatment. Percent lowering in glucose AUC is calculated for each treatment group with respect to the AUC of vehicle group. A compound with a reduction in glucose AUC (P<0.05) is considered positive in the assay.

[2] = biological target: human GPR142 (Homo sapiens (Human), UniProt Q7Z601); assay: GPR142 Agonist Effect as Measured by IP-1 Assay; assay type: cell-based; details: HEK293 cells expressing human GPR142, Mean ± SEM; for Efficacy: IP-1 assay; for EC50: IP-One HTRF, read-out: hGPR142 IP1 EC50
Method: GPR142 Agonist Effect as Measured by IP-1 Assay
The purpose of this assay is to detect GPR142 agonist effect.
HEK293 cells expressing human GPR142 are maintained in DMEM supplemented with 10% FBS and 800 μg/ml G418 (Geneticin®) at 37° C. and 5% CO2. The cells are plated in 384 well plates at 5000 cells per well and allowed 18 hours for attachment. After addition of compounds at varying concentrations ranging from 30 μM to 1 nM, cells are incubated for 1 hr. IP-1 measurements are performed using an IP-One HTRF® assay kit (Cisbio) according to manufacturer's protocol using assay buffer containing 1×HBSS (+Ca, +Mg), 0.1% BSA, 50 mM LiCl and 20 mM HEPES, pH 7.2. The reaction is stopped by addition of IP1-d2 (IP-1 coupled to an organic HTRF acceptor) followed by cryptate solution (http://www.htrf.com/usa/htrf-chemistry). The plates are incubated at 25° C. for 1 hr. Fluorescence is read in an Envision instrument at 665 nm and 620 nm wavelength. The ratio of 665 nm/620 nm is calculated and converted to IP-1 levels using an IP-1 standard curve. The data is fit to a 4 parameter-fit logistics to determine EC50 values.

Chain of human GPR142 (Q7Z601 whole entry): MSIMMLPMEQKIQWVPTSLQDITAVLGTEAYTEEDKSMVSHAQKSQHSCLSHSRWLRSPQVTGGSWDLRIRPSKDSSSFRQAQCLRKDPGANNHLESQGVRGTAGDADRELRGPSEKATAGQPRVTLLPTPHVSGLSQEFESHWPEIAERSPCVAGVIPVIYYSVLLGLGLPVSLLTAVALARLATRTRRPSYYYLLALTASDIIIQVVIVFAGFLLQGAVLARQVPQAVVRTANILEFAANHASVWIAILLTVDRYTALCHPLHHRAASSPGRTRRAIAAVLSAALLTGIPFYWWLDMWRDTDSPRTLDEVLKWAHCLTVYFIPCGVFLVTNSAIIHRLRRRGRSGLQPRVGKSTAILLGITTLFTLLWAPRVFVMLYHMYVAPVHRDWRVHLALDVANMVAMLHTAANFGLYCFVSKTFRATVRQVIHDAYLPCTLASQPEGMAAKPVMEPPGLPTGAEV
Chain of GPR142 (Q7TQN9 whole entry): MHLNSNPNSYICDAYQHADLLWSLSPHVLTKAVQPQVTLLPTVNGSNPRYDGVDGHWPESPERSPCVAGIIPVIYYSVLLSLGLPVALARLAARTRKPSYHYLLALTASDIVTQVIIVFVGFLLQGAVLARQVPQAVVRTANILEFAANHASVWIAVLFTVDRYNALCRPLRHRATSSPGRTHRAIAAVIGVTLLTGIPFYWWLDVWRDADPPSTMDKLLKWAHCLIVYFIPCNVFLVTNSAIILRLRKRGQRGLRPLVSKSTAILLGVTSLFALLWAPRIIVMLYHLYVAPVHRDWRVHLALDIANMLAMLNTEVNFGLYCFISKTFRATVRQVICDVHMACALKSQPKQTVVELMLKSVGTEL

Efficacy [2] | EC50 [2] | SMILES | ED50 [1] | ED80 [1] | considered positive in the assay (reduction in glucose AUC, P<0.05) [1]
110 ± 2, n = 11% | 30.1 ± 4.2 nM | Cc1ncn(C)c1-c1nnc([C@@H]2C[C@H](N(C)C(=O)c3cccc(OC(F)(F)F)c3)CCO2)[nH]1 (single isomer, unassigned; isomer 1) [Example 2, Cis-(chiral)-N-[2-[5-(1,4-Dimethyl-1H-imidazol-5-yl)-4H-1,2,4-triazol-3-yl]tetrahydro-2H-pyran-4-yl]-N-methyl-3-(trifluoromethoxy)benzamide, Isomer 1] | 0.24 mpk | 1.6 mpk | positive
112 ± 3, n = 7% | 27.2 ± 4.8 nM | Cc1ncn(C)c1-c1nnc([C@@H]2C[C@H](N(C)C(=O)c3cccc(Cl)c3)CCO2)[nH]1 (single isomer, unassigned; isomer 1) [Example 3, Cis-(chiral)-3-Chloro-N-[2-[5-(1,4-dimethyl-1H-imidazol-5-yl)-4H-1,2,4-triazol-3-yl]tetrahydro-2H-pyran-4-yl]-N-methyl-benzamide, Isomer 1] |  |  | 
109 ± 3, n = 12% | 43.5 ± 7.9 nM | Cc1ncn(C)c1-c1nnc([C@@H]2C[C@H](N(C)C(=O)c3cccc(C(F)(F)F)c3)CCO2)[nH]1 (single isomer, unassigned; isomer 1) [Example 1, Cis-(chiral)-N-[(2-[5-(1,4-Dimethyl-1H-imidazol-5-yl)-4H-1,2,4-triazol-3-yl]tetrahydro-2H-pyran-4-yl]-N-methyl-3-(trifluoromethyl)benzamide, Isomer 1] | 0.30 mpk | 1.6 mpk | positive

— US10196385B2, “Tetrahydropyranyl benzamide derivatives” (Eli Lilly and Company, priority 2015, dated 2019)
